According to the supplement of paper PMC10307832:

Tests used:
Experiment in all cases: relative viability (nuclei count vs DMSO), 5 days (fraction); higher = more cells survive
[1] = compound: COc1cc2c(Oc3ccc(NC(=O)C4(C(=O)Nc5ccc(F)cc5)CC4)cc3F)ccnc2cc1OCCCN1CCOCC1 [Foretinib] (anchor plate); settings: 0.25 µM
Method in brief: (§1)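 Only plates meeting two conditions passed: control CV below 25% and at least one doubling. Lung cancer cell lines, kept overnight at 37 °C in 1536-well plates, were pinned with five library-drug doses (not always all listed) √10 apart on vehicle-anchored plates and grown 5 days without medium change. A one-step fix, permeabilisation and Hoechst stain preceded 4× imaging and MetaXpress nuclear counting. Viability equals treated-well nuclei divided by vehicle-well nuclei, as the median over plates.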

[2] = compound: O=S(=O)(c1ccccc1)N(CC(F)(F)F)c1ccc(C(O)(C(F)(F)F)C(F)(F)F)cc1
Method in brief: as §1

[3] = compound: C1=CC2=C(C=CC(=C2)C=C3C(=O)NC(=NCC4=CC=CS4)S3)N=C1 [RO-3306]
Method in brief: as §1

[4] = compound: O=S(=O)(c1ccccc1)N(CC(F)(F)F)c1ccc(C(O)(C(F)(F)F)C(F)(F)F)cc1 + O=C(c1cc(Cc2n[nH]c(=O)c3ccccc23)ccc1F)N1CCN(C(=O)C2CC2)CC1 [Olaparib] (partner 8 µM)
Method in brief: (§2)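 Relative viability divides the nuclei count in treated wells by that in vehicle wells. Lung cancer cell lines were seeded in 1536-well plates, dosed by pin tool the next day, and fixed and stained after 5 days in one step with final 0.05% Triton X-100, 1% formaldehyde and 1 ug/ml Hoechst. Dosing was a single drug or a fixed anchor-drug dose plus five library-drug doses (not always all listed) in √10 steps, and values are medians of duplicate plates imaged at 4×.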

[5] = compound: O=S(=O)(c1ccccc1)N(CC(F)(F)F)c1ccc(C(O)(C(F)(F)F)C(F)(F)F)cc1 + C[C@]1(O)C[C@@H](c2nc(-c3ccc4ccc(-c5ccccc5)nc4c3)c3c(N)nccn32)C1 [Linsitinib] (partner 1 µM)
Method in brief: as §2

[6] = compound: C1=CC2=C(C=CC(=C2)C=C3C(=O)NC(=NCC4=CC=CS4)S3)N=C1 [RO-3306] + CC(=O)c1c(C)c2cnc(Nc3ccc(N4CCNCC4)cn3)nc2n(C2CCCC2)c1=O [Palbociclib] (partner 0.5 µM)
Method in brief: as §2

Question: What does the source list for Calu-6?
Answer: relative viability [1]: 0.861; relative viability ([2]; 0.8 µM): 0.982; relative viability ([2]; 2.53 µM): 0.876; relative viability ([2]; 8 µM): 0.858; relative viability ([3]; 0.01 µM): 1.12; relative viability ([3]; 0.03162 µM): 0.893; relative viability ([3]; 0.1 µM): 1.02; relative viability ([3]; 0.3162 µM): 1; relative viability ([3]; 1 µM): 1.06; relative viability ([4]; first compound 0.8 µM): 0.562; relative viability ([4]; first compound 2.53 µM): 0.58; relative viability ([4]; first compound 8 µM): 0.571; relative viability ([5]; first compound 0.8 µM): 0.908; relative viability ([5]; first compound 2.53 µM): 0.826; relative viability ([5]; first compound 8 µM): 0.926

Question: Which relative viability [1] does the source give for ChaGo-K-1 here?
Answer: 0.921

Question: And the relative viability ([2]; 0.8 µM)?
Answer: 1.14

Question: What about the relative viability ([2]; 2.53 µM) of the same cell line?
Answer: 0.998

Question: And the relative viability ([2]; 8 µM)?
Answer: 1.06

Question: What about the relative viability ([3]; 0.01 µM) of the same cell line?
Answer: 1.03

Question: And the relative viability ([3]; 0.03162 µM)?
Answer: 0.933

Question: What about the relative viability ([3]; 0.1 µM) of the same cell line?
Answer: 1.01

Question: And the relative viability ([3]; 0.3162 µM)?
Answer: 1.04

Question: And the relative viability ([3]; 1 µM)?
Answer: 0.699

Question: What about the relative viability ([4]; first compound 0.8 µM) of the same cell line?
Answer: 0.466

Question: And the relative viability ([4]; first compound 2.53 µM)?
Answer: 0.427

Question: And the relative viability ([4]; first compound 8 µM)?
Answer: 0.388

Question: And the relative viability ([6]; first compound 0.01 µM)?
Answer: 1.04

Question: And the relative viability ([6]; first compound 0.03162 µM)?
Answer: 0.854

Question: And the relative viability ([6]; first compound 0.1 µM)?
Answer: 0.911

Question: And the relative viability ([6]; first compound 0.3162 µM)?
Answer: 0.871

Question: And the relative viability ([6]; first compound 1 µM)?
Answer: 0.578

Question: Which relative viability [1] does the source give for EBC-1 here?
Answer: 0.108

Question: And the relative viability ([2]; 0.8 µM)?
Answer: 0.934

Question: And the relative viability ([2]; 2.53 µM)?
Answer: 0.769

Question: What about the relative viability ([2]; 8 µM) of the same cell line?
Answer: 0.721

Question: And the relative viability ([3]; 0.01 µM)?
Answer: 1.04

Question: And the relative viability ([3]; 0.03162 µM)?
Answer: 0.807

Question: And the relative viability ([3]; 0.1 µM)?
Answer: 1.01

Question: What about the relative viability ([3]; 0.3162 µM) of the same cell line?
Answer: 1.14

Question: And the relative viability ([3]; 1 µM)?
Answer: 1.01

Question: And the relative viability ([4]; first compound 0.8 µM)?
Answer: 0.692

Question: And the relative viability ([4]; first compound 2.53 µM)?
Answer: 0.584

Question: What about the relative viability ([4]; first compound 8 µM) of the same cell line?
Answer: 0.597

Question: What about the relative viability ([5]; first compound 0.8 µM) of the same cell line?
Answer: 0.911

Question: And the relative viability ([5]; first compound 2.53 µM)?
Answer: 0.47

Question: And the relative viability ([5]; first compound 8 µM)?
Answer: 0.695

Question: What does the source list for EKVX?
Answer: relative viability [1]: 0.886; relative viability ([2]; 0.8 µM): 0.93; relative viability ([2]; 2.53 µM): 0.893; relative viability ([2]; 8 µM): 0.836; relative viability ([3]; 0.01 µM): 1; relative viability ([3]; 0.03162 µM): 0.888; relative viability ([3]; 0.1 µM): 1; relative viability ([3]; 0.3162 µM): 1.03; relative viability ([3]; 1 µM): 0.915; relative viability ([4]; first compound 0.8 µM): 0.836; relative viability ([4]; first compound 2.53 µM): 0.757; relative viability ([4]; first compound 8 µM): 0.661; relative viability ([6]; first compound 0.01 µM): 0.346; relative viability ([6]; first compound 0.03162 µM): 0.37; relative viability ([6]; first compound 0.1 µM): 0.332; relative viability ([6]; first compound 0.3162 µM): 0.447; relative viability ([6]; first compound 1 µM): 0.393; relative viability ([5]; first compound 0.8 µM): 0.897; relative viability ([5]; first compound 2.53 µM): 0.946; relative viability ([5]; first compound 8 µM): 0.931

Question: Which results are given for EMC-BAC-2?
Answer: relative viability [1]: 1.02; relative viability ([2]; 0.8 µM): 0.996; relative viability ([2]; 2.53 µM): 1.01; relative viability ([2]; 8 µM): 0.966; relative viability ([3]; 0.01 µM): 0.943; relative viability ([3]; 0.03162 µM): 0.844; relative viability ([3]; 0.1 µM): 0.915; relative viability ([3]; 0.3162 µM): 1.12; relative viability ([3]; 1 µM): 0.616; relative viability ([4]; first compound 0.8 µM): 0.471; relative viability ([4]; first compound 2.53 µM): 0.47; relative viability ([4]; first compound 8 µM): 0.483; relative viability ([6]; first compound 0.01 µM): 0.501; relative viability ([6]; first compound 0.03162 µM): 0.461; relative viability ([6]; first compound 0.1 µM): 0.514; relative viability ([6]; first compound 0.3162 µM): 0.516; relative viability ([6]; first compound 1 µM): 0.494; relative viability ([5]; first compound 0.8 µM): 0.902; relative viability ([5]; first compound 2.53 µM): 0.846; relative viability ([5]; first compound 8 µM): 0.796

Question: Which results are given for EPLC-272H?
Answer: relative viability [1]: 0.723; relative viability ([2]; 0.8 µM): 0.942; relative viability ([2]; 2.53 µM): 0.929; relative viability ([2]; 8 µM): 0.982; relative viability ([3]; 0.01 µM): 0.866; relative viability ([3]; 0.03162 µM): 0.73; relative viability ([3]; 0.1 µM): 0.921; relative viability ([3]; 0.3162 µM): 0.901; relative viability ([3]; 1 µM): 0.791; relative viability ([4]; first compound 0.8 µM): 0.888; relative viability ([4]; first compound 2.53 µM): 0.859; relative viability ([4]; first compound 8 µM): 0.645; relative viability ([6]; first compound 0.01 µM): 0.254; relative viability ([6]; first compound 0.1 µM): 0.342; relative viability ([6]; first compound 0.3162 µM): 0.304; relative viability ([6]; first compound 1 µM): 0.302; relative viability ([5]; first compound 0.8 µM): 1.12; relative viability ([5]; first compound 2.53 µM): 1.32; relative viability ([5]; first compound 8 µM): 1.11

Question: Which relative viability [1] does the source give for H3255 here?
Answer: 0.881

Question: What about the relative viability ([2]; 0.8 µM) of the same cell line?
Answer: 0.913

Question: And the relative viability ([2]; 2.53 µM)?
Answer: 0.808

Question: And the relative viability ([2]; 8 µM)?
Answer: 0.84

Question: And the relative viability ([3]; 0.01 µM)?
Answer: 1.02

Question: And the relative viability ([3]; 0.03162 µM)?
Answer: 0.913

Question: And the relative viability ([3]; 0.1 µM)?
Answer: 0.995

Question: And the relative viability ([3]; 0.3162 µM)?
Answer: 0.946

Question: What about the relative viability ([3]; 1 µM) of the same cell line?
Answer: 0.93

Question: And the relative viability ([4]; first compound 0.8 µM)?
Answer: 0.533

Question: And the relative viability ([4]; first compound 2.53 µM)?
Answer: 0.488

Question: And the relative viability ([4]; first compound 8 µM)?
Answer: 0.439

Question: What about the relative viability ([6]; first compound 0.01 µM) of the same cell line?
Answer: 0.299

Question: What about the relative viability ([6]; first compound 0.03162 µM) of the same cell line?
Answer: 0.373

Question: What about the relative viability ([6]; first compound 0.1 µM) of the same cell line?
Answer: 0.294

Question: What about the relative viability ([6]; first compound 0.3162 µM) of the same cell line?
Answer: 0.305

Question: What about the relative viability ([6]; first compound 1 µM) of the same cell line?
Answer: 0.321

Question: What about the relative viability ([5]; first compound 0.8 µM) of the same cell line?
Answer: 0.962

Question: And the relative viability ([5]; first compound 2.53 µM)?
Answer: 0.867

Question: And the relative viability ([5]; first compound 8 µM)?
Answer: 0.832

Question: With HARA as the cell line, how does the relative viability [1] read?
Answer: 0.959

Question: And the relative viability ([2]; 0.8 µM)?
Answer: 0.933

Question: And the relative viability ([2]; 2.53 µM)?
Answer: 0.803

Question: And the relative viability ([2]; 8 µM)?
Answer: 0.962

Question: What about the relative viability ([3]; 0.01 µM) of the same cell line?
Answer: 0.96

Question: What about the relative viability ([3]; 0.03162 µM) of the same cell line?
Answer: 0.909

Question: And the relative viability ([3]; 0.1 µM)?
Answer: 0.886

Question: And the relative viability ([3]; 0.3162 µM)?
Answer: 0.985

Question: What about the relative viability ([3]; 1 µM) of the same cell line?
Answer: 1.03

Question: What about the relative viability ([4]; first compound 0.8 µM) of the same cell line?
Answer: 0.995

Question: And the relative viability ([4]; first compound 8 µM)?
Answer: 0.678

Question: And the relative viability ([6]; first compound 0.01 µM)?
Answer: 0.207

Question: And the relative viability ([6]; first compound 0.1 µM)?
Answer: 0.265

Question: What about the relative viability ([6]; first compound 0.3162 µM) of the same cell line?
Answer: 0.24

Question: And the relative viability ([6]; first compound 1 µM)?
Answer: 0.311

Question: And the relative viability ([5]; first compound 0.8 µM)?
Answer: 0.901

Question: And the relative viability ([5]; first compound 2.53 µM)?
Answer: 0.847

Question: And the relative viability ([5]; first compound 8 µM)?
Answer: 0.776
